The values that follow are results of earlier work, collected in publication PMC7532674, “Synthesis and preliminary studies of ^11C-labeled tetrahydro-1,7-naphthyridine-2-carboxamides for PET imaging of metabotropic glutamate receptor 2” (Theranostics, 2020).

The LogD is the decadic logarithm of the distribution of all forms, ionised or not, between an organic phase and buffer at a given pH. The term IC50 denotes the concentration that inhibits the measured activity by half.

For data set [1] the following is noted: animal PET; cited from earlier work.
Details of data set [2]: method as in PMID 30611634. To be noted: cited from earlier work.
A further data set has as its system mGlu2. To be noted: cited from earlier work.

Take `Cc1cc(COc2cnc(C(N)=O)cc2-c2ccc(O[11CH3])cc2F)ccn1` [[^11C]MMP, 4-(2-fluoro-4-[^11C]methoxyphenyl)-5-((2-methylpyridin-4-yl)methoxy)picolinamide]: in data set [1], the “Brain uptake, peak value” is listed as ~ 0.6. Further, the LogD in data set [2] is given as 3.30. Moreover, the concentration for half-maximal inhibition (IC50) with mGlu2 was 26 nM.
